Data from ChEMBL document CHEMBL4819136, “Design and synthesis of garlic-related unsymmetrical thiosulfonates as potential Alzheimer's disease therapeutics: In vitro and in silico study” (Bioorg Med Chem, 2021).

What was measured:
Cholinesterase = Cholinesterase (Homo sapiens, UniProt P06276); test: Inhibition of human serum BuChE using butyrylthiocholine iodide as substrate preincubated with enzyme for 10 mins followed by substrate addition and measured by Ellman's method; format: cell-free
Acetylcholinesterase [1] = molecular target: T1, Acetylcholinesterase (Homo sapiens, UniProt P22303)
Description: Inhibition of human recombinant AChE using acetylthiocholine iodide as substrate preincubated with enzyme for 10 mins followed by substrate addition and measured by Ellman's method

Acetylcholinesterase [2] = molecular target: T1, Acetylcholinesterase; test: Potency index, ratio of rivastigmine IC50 to test compound IC50 for human recombinant AChE using acetylthiocholine iodide as substrate preincubated with enzyme for 10 mins followed by substrate addition and measured by Ellman's method

T1 sequence (P22303 whole entry): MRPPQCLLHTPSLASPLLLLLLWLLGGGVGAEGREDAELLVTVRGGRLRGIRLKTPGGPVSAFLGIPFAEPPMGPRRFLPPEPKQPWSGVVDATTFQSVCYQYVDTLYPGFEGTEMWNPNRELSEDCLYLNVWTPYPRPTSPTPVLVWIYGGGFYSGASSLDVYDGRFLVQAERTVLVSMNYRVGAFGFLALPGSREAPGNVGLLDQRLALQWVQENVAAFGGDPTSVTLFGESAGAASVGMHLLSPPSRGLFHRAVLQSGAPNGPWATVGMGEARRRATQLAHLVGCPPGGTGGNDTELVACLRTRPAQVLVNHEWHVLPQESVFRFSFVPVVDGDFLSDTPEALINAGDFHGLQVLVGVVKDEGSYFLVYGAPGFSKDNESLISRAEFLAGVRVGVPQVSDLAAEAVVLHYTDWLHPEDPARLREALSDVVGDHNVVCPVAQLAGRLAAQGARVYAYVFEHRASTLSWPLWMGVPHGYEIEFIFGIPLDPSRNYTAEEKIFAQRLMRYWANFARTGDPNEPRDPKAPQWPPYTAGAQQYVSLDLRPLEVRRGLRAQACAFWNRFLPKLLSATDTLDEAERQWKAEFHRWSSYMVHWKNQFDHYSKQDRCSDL
Cholinesterase, sequence (P06276 whole entry): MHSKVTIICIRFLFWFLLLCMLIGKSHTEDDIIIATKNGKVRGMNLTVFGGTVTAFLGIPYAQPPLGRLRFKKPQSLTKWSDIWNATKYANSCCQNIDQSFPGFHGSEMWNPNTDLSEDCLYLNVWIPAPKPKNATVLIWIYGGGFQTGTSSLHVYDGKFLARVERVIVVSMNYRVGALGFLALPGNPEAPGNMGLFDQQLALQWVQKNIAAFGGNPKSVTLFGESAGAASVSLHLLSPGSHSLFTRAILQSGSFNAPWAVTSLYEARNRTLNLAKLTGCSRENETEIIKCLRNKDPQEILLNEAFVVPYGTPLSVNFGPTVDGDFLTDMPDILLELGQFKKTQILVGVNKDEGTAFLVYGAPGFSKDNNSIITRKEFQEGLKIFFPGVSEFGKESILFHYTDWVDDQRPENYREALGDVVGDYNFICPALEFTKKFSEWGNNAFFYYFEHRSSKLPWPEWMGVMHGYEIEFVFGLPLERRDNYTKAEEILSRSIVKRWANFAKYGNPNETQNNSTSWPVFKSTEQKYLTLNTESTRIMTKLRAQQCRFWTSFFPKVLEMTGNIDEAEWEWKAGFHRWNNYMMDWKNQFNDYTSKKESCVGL

SMILES | IC50 (Cholinesterase) | Ki (Cholinesterase) | IC50 (Acetylcholinesterase [1]) | Ki (Acetylcholinesterase [1]) | Ratio IC50 (Acetylcholinesterase [2])
Cc1ccc(S(=O)(=O)SCc2ccc(C(F)(F)F)cc2)cc1 | 118 nM | 103 nM | 86.6 nM | 148 nM | 
Cc1ccc(S(=O)(=O)SCc2ccc(F)cc2)cc1 | 303 nM | 208 nM | 313 nM | 327 nM | 
Cc1ccc(S(=O)(=O)SCc2ccc(C(C)C)cc2)cc1 | 84.5 nM | 37.9 nM | 11.9 nM | 25.6 nM | 5
Cc1ccc(S(=O)(=O)SCc2ccc([N+](=O)[O-])cc2)cc1 | 214 nM | 303 nM | 212 nM | 251 nM | 
Cc1ccc(S(=O)(=O)SCc2ccccc2)cc1 | 318 nM | 218 nM | 517 nM | 390 nM | 
Cc1ccc(S(=O)(=O)SCc2ccc(OC(F)(F)F)cc2)cc1 | 53.3 nM | 17.5 nM | 129 nM | 198 nM | 
Cc1ccc(S(=O)(=O)SCc2ccc(C#N)cc2)cc1 | 203 nM | 201 nM | 196 nM | 166 nM | 
Cc1ccc(S(=O)(=O)SCc2ccc(Cl)cc2)cc1 | 315 nM | 199 nM | 478 nM | 714 nM | 
COc1ccc(CSS(=O)(=O)c2ccc(C)cc2)cc1 | 202 nM | 251 nM | 488 nM | 219 nM | 
